According to patent US6914045B2, “Glycopeptide antibiotics” (Wyeth Holdings Corporation, priority 2001, dated 2005):
Converted amounts (≈) assume the structure as drawn. Read-outs that look alike come from different tables or passages of the source. Values belong to the compound of their own block, whether it stands above or below them.

How the values were obtained:
Test in all cases: in vitro antibacterial evaluation, MIC by broth dilution
Assay type in all cases: cell-based
Staphylococcus sp. = tested on: Staphylococcus sp.
Summary of the method: (§1)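 Step 1: dilute antibiotic across 64-0.06 μg/mL in Muller-Hinton II […]. Step 2: inoculate at 5×10^5 CFU/mL.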

Streptococcus sp. = tested on: Streptococcus sp.
Summary of the method: as §1

Enterococcus sp. = tested on: Enterococcus sp.
Summary of the method: as §1

Escherichia coli = tested on: Escherichia coli
[1] = broth dilution, 18 hours at 35° C.

MIC Staphylococcus aureus (GC 1131) (Staphylococcus sp.; broth dilution, 18 hours at 35° C., inoculum 5×10^5 CFU/mL, strain GC 1131): 2 µg/mL (≈ 1.24 µM)
MIC Staphylococcus aureus (ATCC 29213) (Staphylococcus sp.; strain ATCC 29213, broth dilution, 18 hours at 35° C.): 2 µg/mL (≈ 1.24 µM)
MIC Staphylococcus aureus (GC 1131) (Staphylococcus sp.; strain GC 1131, broth dilution, 18 hours at 35° C.): 2 µg/mL (≈ 1.24 µM)
MIC Staphylococcus aureus (GC 3051) (Staphylococcus sp.; strain GC 3051, broth dilution, 18 hours at 35° C.): 2 µg/mL (≈ 1.24 µM)
MIC Staphylococcus aureus (GC 3053) (Staphylococcus sp.; strain GC 3053, broth dilution, 18 hours at 35° C.): 2 µg/mL (≈ 1.24 µM)
MIC Staphylococcus aureus (GC 4541) (Staphylococcus sp.; strain GC 4541, broth dilution, 18 hours at 35° C.): 2 µg/mL (≈ 1.24 µM)
MIC Staphylococcus aureus (GC 4542) (Staphylococcus sp.; strain GC 4542, broth dilution, 18 hours at 35° C.): 1 µg/mL (≈ 0.62 µM)
MIC Staphylococcus aureus-SMITH (GC 4543) (Staphylococcus sp.; strain GC 4543, broth dilution, 18 hours at 35° C.): 2 µg/mL (≈ 1.24 µM)
MIC Staphylococcus aureus (GC 4544) (Staphylococcus sp.; strain GC 4544, broth dilution, 18 hours at 35° C.): 2 µg/mL (≈ 1.24 µM)
MIC Staphylococcus aureus (GC 4545) (Staphylococcus sp.; strain GC 4545, broth dilution, 18 hours at 35° C.): 2 µg/mL (≈ 1.24 µM)
MIC Coagulase Negative Staphylococcus (GC 4547) (Staphylococcus sp.; strain GC 4547, broth dilution, 18 hours at 35° C.): 2 µg/mL (≈ 1.24 µM)
MIC Coagulase Negative Staphylococcus (GC 4548) (Staphylococcus sp.; strain GC 4548, broth dilution, 18 hours at 35° C.): 1 µg/mL (≈ 0.62 µM)
MIC Coagulase Negative Staphylococcus (GC 4549) (Staphylococcus sp.; strain GC 4549, broth dilution, 18 hours at 35° C.): 1 µg/mL (≈ 0.62 µM)
MIC Coagulase Negative Staphylococcus (GC 4551) (Staphylococcus sp.; strain GC 4551, broth dilution, 18 hours at 35° C.): 2 µg/mL (≈ 1.24 µM)
MIC Coagulase Negative Staphylococcus (GC 6257) (Staphylococcus sp.; strain GC 6257, broth dilution, 18 hours at 35° C.): 0.5 µg/mL (≈ 0.31 µM)
MIC Streptococcus agalactiae (GC 4564) (Streptococcus sp.; [1]): <0.06 µg/mL
MIC Streptococcus pneumoniae (ATCC 6301) (Streptococcus sp.; [1]): <0.06 µg/mL
MIC Streptococcus pneumoniae (GC 1894) (Streptococcus sp.; [1]): <0.06 µg/mL
MIC Streptococcus pneumoniae (GC 4565) (Streptococcus sp.; [1]): <0.06 µg/mL
MIC Streptococcus pyogenes (GC 4563) (Streptococcus sp.; [1]): 0.25 µg/mL (≈ 0.155 µM)
MIC Streptococcus pneumoniae (ATCC 6301) (Streptococcus sp.; broth dilution, inoculum 5×10^5 CFU/mL, 18 hours at 35° C., strain ATCC 6301): <0.06 µg/mL
MIC Streptococcus pneumoniae (GC 1894) (Streptococcus sp.; broth dilution, inoculum 5×10^5 CFU/mL, 18 hours at 35° C., strain GC 1894): <0.06 µg/mL
MIC Streptococcus pyogenes (GC 4563) (Streptococcus sp.; broth dilution, inoculum 5×10^5 CFU/mL, 18 hours at 35° C., strain GC 4563): 0.25 µg/mL (≈ 0.155 µM)
MIC Streptococcus agalactiae (GC 4564) (Streptococcus sp.; broth dilution, inoculum 5×10^5 CFU/mL, 18 hours at 35° C., strain GC 4564): <0.06 µg/mL
MIC Streptococcus pneumoniae (GC 4565) (Streptococcus sp.; broth dilution, inoculum 5×10^5 CFU/mL, 18 hours at 35° C., strain GC 4565): <0.06 µg/mL
MIC Enterococcus avium (GC 4558) (Enterococcus sp.; [1]): 2 µg/mL (≈ 1.24 µM)
MIC Enterococcus faecalis (ATCC 29212) (Enterococcus sp.; [1]): 2 µg/mL (≈ 1.24 µM)
MIC Enterococcus faecalis (GC 2242) (Enterococcus sp.; [1]): 2 µg/mL (≈ 1.24 µM)
MIC Enterococcus faecalis (GC 2691) (Enterococcus sp.; [1]): 2 µg/mL (≈ 1.24 µM)
MIC Enterococcus faecalis (GC 3059) (Enterococcus sp.; [1]): 2 µg/mL (≈ 1.24 µM)
MIC Enterococcus faecalis (GC 4552) (Enterococcus sp.; [1]): 2 µg/mL (≈ 1.24 µM)
MIC Enterococcus faecalis (GC 4553) (Enterococcus sp.; [1]): 2 µg/mL (≈ 1.24 µM)
MIC Enterococcus faecalis (GC 4554) (Enterococcus sp.; [1]): 2 µg/mL (≈ 1.24 µM)
MIC Enterococcus faecalis (GC 6189) (Enterococcus sp.; [1]): 1 µg/mL (≈ 0.62 µM)
MIC Enterococcus faecium (GC 2243) (Enterococcus sp.; [1]): 2 µg/mL (≈ 1.24 µM)
MIC Enterococcus faecium (GC 4556) (Enterococcus sp.; [1]): 2 µg/mL (≈ 1.24 µM)
MIC Enterococcus faecium (GC 4557) (Enterococcus sp.; [1]): 2 µg/mL (≈ 1.24 µM)
MIC Enterococcus faecalis (ATCC 29212) (Enterococcus sp.; broth dilution, inoculum 5×10^5 CFU/mL, 18 hours at 35° C., strain ATCC 29212): 2 µg/mL (≈ 1.24 µM)
MIC Enterococcus faecalis (GC 2242) (Enterococcus sp.; broth dilution, inoculum 5×10^5 CFU/mL, 18 hours at 35° C., strain GC 2242): 2 µg/mL (≈ 1.24 µM)
MIC Enterococcus faecium (GC 2243) (Enterococcus sp.; broth dilution, inoculum 5×10^5 CFU/mL, 18 hours at 35° C., strain GC 2243): 2 µg/mL (≈ 1.24 µM)
MIC Enterococcus faecalis (GC 2691) (Enterococcus sp.; broth dilution, inoculum 5×10^5 CFU/mL, 18 hours at 35° C., strain GC 2691): 2 µg/mL (≈ 1.24 µM)
MIC Enterococcus faecalis (GC 3059) (Enterococcus sp.; broth dilution, inoculum 5×10^5 CFU/mL, 18 hours at 35° C., strain GC 3059): 2 µg/mL (≈ 1.24 µM)
MIC Enterococcus faecalis (GC 4552) (Enterococcus sp.; broth dilution, inoculum 5×10^5 CFU/mL, 18 hours at 35° C., strain GC 4552): 2 µg/mL (≈ 1.24 µM)
MIC Enterococcus faecalis (GC 4553) (Enterococcus sp.; broth dilution, inoculum 5×10^5 CFU/mL, 18 hours at 35° C., strain GC 4553): 2 µg/mL (≈ 1.24 µM)
MIC Enterococcus faecalis (GC 4554) (Enterococcus sp.; broth dilution, inoculum 5×10^5 CFU/mL, 18 hours at 35° C., strain GC 4554): 2 µg/mL (≈ 1.24 µM)
MIC Enterococcus faecium (GC 4556) (Enterococcus sp.; broth dilution, inoculum 5×10^5 CFU/mL, 18 hours at 35° C., strain GC 4556): 2 µg/mL (≈ 1.24 µM)
MIC Enterococcus faecium (GC 4557) (Enterococcus sp.; broth dilution, inoculum 5×10^5 CFU/mL, 18 hours at 35° C., strain GC 4557): 2 µg/mL (≈ 1.24 µM)
MIC Enterococcus avium (GC 4558) (Enterococcus sp.; broth dilution, inoculum 5×10^5 CFU/mL, 18 hours at 35° C., strain GC 4558): 2 µg/mL (≈ 1.24 µM)
MIC Enterococcus faecalis (GC 6189) (Enterococcus sp.; broth dilution, inoculum 5×10^5 CFU/mL, 18 hours at 35° C., strain GC 6189): 1 µg/mL (≈ 0.62 µM)
MIC Escherichia coli (ATCC 25922) (Escherichia coli; 18 hours at 35° C.): 64 µg/mL (≈ 39.7 µM)
MIC Escherichia coli (GC 4559) (Escherichia coli; 18 hours at 35° C.): 64 µg/mL (≈ 39.7 µM)
MIC Escherichia coli (GC 4560) (Escherichia coli; 18 hours at 35° C.): 4 µg/mL (≈ 2.48 µM)
SMILES: CC(c1ccccc1)C1NC(=O)CNC(=O)C(CO)NC(=O)C(C(O)C2CNC(=N)N2C2OC(CO)C(O)C(O)C2O)NC(=O)C(C(O)C2CNC(=N)N2)NC(=O)C(Cc2ccc(OC3OC(CO)C(OC4OC5COC(c6ccc(C(=O)c7ccc(I)cc7)cc6)OC5C(O)C4O)C(O)C3O)cc2)NC1=O (stereo not drawn) [Example 186]
MIC Staphylococcus haemolyticus (GC 4546) (Staphylococcus sp.; strain GC 4546, broth dilution, 18 hours at 35° C.): 1 µg/mL (≈ 0.62 µM)

SMILES: CC(c1ccccc1)C1NC(=O)CNC(=O)C(CO)NC(=O)C(C(O)C2CNC(=N)N2C2OC(CO)C(O)C(O)C2O)NC(=O)C(C(O)C2CNC(=N)N2)NC(=O)C(Cc2ccc(OC3OC(CO)C(OC4OC(CO)C(O)C(O)C4O)C(O)C3O)c(I)c2)NC1=O (stereo not drawn) [Example 6, Cyclo[glycyl-β-methylphenylalanyl-O-(4-O-hexolpyranosylhexolpyranosyl)-3-iodo-tyrosyl-3-(2-iminoimidazolidin-4-yl)seryl-3-(3-hexolpyranosyl-2-iminoimidazolidin-4-yl)serylseryl]]
MIC Coagulase Negative Staphylococcus (GC 4547) (Staphylococcus sp.): >128 µg/mL
MIC Coagulase Negative Staphylococcus (GC 4548) (Staphylococcus sp.): >128 µg/mL
MIC Coagulase Negative Staphylococcus (GC 4549) (Staphylococcus sp.): >128 µg/mL
MIC Coagulase Negative Staphylococcus (GC 4551) (Staphylococcus sp.): >128 µg/mL
MIC Coagulase Negative Staphylococcus (ID-3941) (Staphylococcus sp.): >128 µg/mL
MIC Staphylococcus aureus (ATCC 29213) (Staphylococcus sp.): >128 µg/mL
MIC Staphylococcus aureus (GC 1131) (Staphylococcus sp.): >128 µg/mL
MIC Staphylococcus aureus (GC 4541) (Staphylococcus sp.): >128 µg/mL
MIC Staphylococcus aureus (GC 4542) (Staphylococcus sp.): >128 µg/mL
MIC Staphylococcus aureus (GC 4544) (Staphylococcus sp.): >128 µg/mL
MIC Staphylococcus aureus (GC 4545) (Staphylococcus sp.): >128 µg/mL
MIC Staphylococcus aureus-SMITH (GC 4543) (Staphylococcus sp.): >128 µg/mL
MIC Staphylococcus haemolyticus (GC 4546) (Staphylococcus sp.): >128 µg/mL
MIC Streptococcus agalactiae (GC 4564) (Streptococcus sp.): >128 µg/mL
MIC Streptococcus pneumoniae (GC 4565) (Streptococcus sp.): >128 µg/mL
MIC Streptococcus pyogenes (ID-3187) (Streptococcus sp.): >128 µg/mL
MIC Enterococcus avium (GC 4558) (Enterococcus sp.): >128 µg/mL
MIC Enterococcus faecalis (ATCC 29212) (Enterococcus sp.): >128 µg/mL
MIC Enterococcus faecalis (GC 2242) (Enterococcus sp.): >128 µg/mL
MIC Enterococcus faecalis (GC 4552) (Enterococcus sp.): >128 µg/mL
MIC Enterococcus faecalis (GC 4553) (Enterococcus sp.): >128 µg/mL
MIC Enterococcus faecalis (GC 4554) (Enterococcus sp.): >128 µg/mL
MIC Enterococcus faecium (GC 2243) (Enterococcus sp.): >128 µg/mL
MIC Enterococcus faecium (GC 4556) (Enterococcus sp.): >128 µg/mL
MIC Enterococcus faecium (GC 4557) (Enterococcus sp.): >128 µg/mL
MIC Escherichia coli (ATCC 25922) (Escherichia coli): >128 µg/mL
MIC Escherichia coli (GC 4559) (Escherichia coli): >128 µg/mL
MIC Escherichia coli (GC 4560) (Escherichia coli): >128 µg/mL
